Measurements as given in patent US5709816A, “Singlet oxygen quenchers and external compositions containing the same” (Kao Corporation, priority 1899, dated 1998).

Key:
skin of hairless mice [1] = assay: Analysis of wrinkles in hairless mice (image analysis of skin replicas); assay type: in vivo, hairless mouse (HR/ICR); conditions: 5 wt. % in ethanol, 80 μl; UV-B sixteen weeks; shadow area of skin replicas, 30°; control (ethanol) 6.46 ± 0.68
Method: (§1) To each hairless mouse (HR/ICR, 6 weeks old when the test started), a test substance (5 wt. %, in ethanol) was applied. (80 μl). Approximately 10 minutes later, UV-B was irradiated thereto using 6 bulbs of health lamps (SL20-SLE, Toshiba) so that the dose per irradiation was not greater than 1 MED. Irradiation was repeated five times per week over sixteen weeks. While the irradiation energy was measured using a UV-radiometer (UVR-305/S65D, Tokyo Optical K.K.) so that the dose per irradiation was not greater than 1 MED, energy was irradiated at an intensity of 0.28 mW/cm^2, with the total dose. 100 mJ/cm^2. As a control, a case where only ethanol was applied was similarly tested in a manner performed on the test substances.
In order to analyze the wrinkles formed in the above step (1) in detail, replicas of different skin areas (3 replicas per mouse) each having a round shape with a diameter of 1 cm were obtained using a hydrophilic exaflex, hydrophilic vinyl silicone imaging agent. Each replica was placed horizontally and lightened from an angle of 30°. The area of shadows formed by wrinkles was analyzed as the area ratio using an image analyzing apparatus.

skin of hairless mice [2] = assay: Inhibition of wrinkle formation in hairless mice (visual wrinkle index); assay type: in vivo, hairless mouse (HR/ICR); conditions: 5 wt. % in ethanol, 80 μl; UV-B five times per week, sixteen weeks; scale 1 (no wrinkles) to 4; control (ethanol) 3.78 ± 0.08
Method: (1) Inhibition of wrinkle formation in hairless mice.
as §1
After completion of the testing, the level of wrinkle formation was visually determined using the following standards (wrinkle indices).
1: No wrinkles are formed
2: Small amounts of wrinkles are formed
3: Moderate amounts of wrinkles are formed
4: Considerable amounts of wrinkles are formed

| Compound | Area ratio of image analysis (skin of hairless mice [1]) [%] | Wrinkle index (skin of hairless mice [2]) |
| --- | --- | --- |
| CCCCC(CC)CN(Cc1ccco1)Cc1ccco1 (centres unmarked) [Compound (23), N,N-bisfurfuryl-2-ethylhexylamine] | 3.23 ± 0.18 | 2.17 ± 0.05 |
| CCOC(=O)CN(Cc1ccco1)Cc1ccco1 [Compound (24), ethyl N,N-bisfurfurylglycine] | 3.27 ± 0.29 | 2.56 ± 0.08 |
| Cc1ccc(CN(Cc2ccc(C)o2)c2ccccc2)o1 [Compound (25), N,N-bis(5-methylfurfuryl)phenylamine] | 3.32 ± 0.21 | 2.35 ± 0.34 |
| COc1ccc(N(Cc2ccc(C)o2)Cc2ccc(C)o2)cc1 [Compound (26), N,N-bis(5-methylfurfuryl)-p-methoxyphenylamine] | 3.69 ± 0.59 | 2.44 ± 0.33 |
| COc1ccc(N(Cc2ccc(C)o2)Cc2ccc(C)o2)cc1OC [Compound (27), N,N-bis(5-methylfurfuryl)-3,4-dimethoxyphenylamine] | 3.73 ± 0.29 | 2.22 ± 0.17 |
| COc1cc(N(Cc2ccc(C)o2)Cc2ccc(C)o2)cc(OC)c1OC [Compound (28), N,N-bis(5-methylfurfuryl)-3,4,5-trimethoxyphenylamine] | 3.24 ± 0.33 | 2.43 ± 0.06 |
| Cc1ccc(N(Cc2ccc(C)o2)Cc2ccc(C)o2)cc1 [Compound (29), N,N-bis(5-methylfurfuyl)-4-methylphenylamine] | 3.64 ± 0.12 | 2.28 ± 0.06 |
| Cc1ccc(CN(Cc2ccc(C)o2)c2ccccc2C)o1 [Compound (30), N,N-bis(5-methylfurfuryl)-2-methylphenylamine] | 3.39 ± 0.47 | 2.51 ± 0.43 |
| COc1ccc(N(Cc2ccco2)Cc2ccc(C)o2)cc1 [Compound (31), N-furfuryl-N-(S-methylfurfuryl)-4-methoxyphenylamine] | 3.30 ± 0.17 | 2.49 ± 0.20 |
| CC(=O)Oc1c(C)c(C)c2c(c1C)CCC(C)(CCCC(C)CCCC(C)CCCC(C)C)O2 (stereo not drawn) [α-Tocopheryl acetate, reference compound] | 4.67 ± 0.48 | 3.28 ± 0.23 |
